{"source": "patent US20160199351A1", "about": "“COMPOSITIONS AND METHODS FOR INHIBITING FUNGAL INFECTIONS” (priority 2015, published 2016)", "key": {"Blastomyces dermatitidis": {"system": "Blastomyces dermatitidis", "test": "MIC, macrodilution method (Table 1)", "type": "cell-based", "conditions": "96 hours"}, "C. parapsilosis": {"system": "C. parapsilosis", "test": "MIC against Candida species (Table 4)"}, "[1]": {"system": "Coccidioides immitis/posadasii", "type": "cell-based"}, "Lomentospora prolificans": {"system": "Lomentospora prolificans", "test": "MIC, CLSI M38-A2 broth dilution (Table 1)", "type": "cell-based", "conditions": "isolate LP1, 48 hours"}, "Fusarium solani": {"system": "Fusarium solani", "test": "MIC, CLSI M38-A2 broth dilution (Table 1)", "type": "cell-based", "conditions": "isolate FS1, 48 hours"}, "C. guilliermondii": {"system": "C. guilliermondii", "test": "MIC against Candida species (Table 4)", "conditions": "Meyerozyma guilliermondii, 24 h"}}, "note": "Where two headings read alike, the source gives them in different places."}
{"compound": "NCC(=O)Nc1ccc(-n2nc(C(F)(F)F)cc2-c2ccc3c(ccc4ccccc43)c2)cc1", "note": "[AR-12, 2-amino-N-(4-(5-(phenanthren-2-yl)-3-(trifluoromethyl)-1H-pyrazol-1-yl)phenyl)acetamide]", "values": [{"measurement": "MIC 50%", "setting": "Blastomyces dermatitidis; isolate BD1, macrodilution", "value": 2, "unit": "gg/m1"}, {"measurement": "MIC 100%", "setting": "Blastomyces dermatitidis; isolate BD1, macrodilution", "value": 4, "unit": "gg/m1"}, {"measurement": "MIC 50%", "setting": "Blastomyces dermatitidis; isolate BD2, macrodilution", "value": 1, "unit": "gg/m1"}, {"measurement": "MIC 100%", "setting": "Blastomyces dermatitidis; isolate BD2, macrodilution", "value": 2, "unit": "gg/m1"}, {"measurement": "MIC 50%", "setting": "Blastomyces dermatitidis; isolate BD3, macrodilution", "value": 1, "unit": "gg/m1"}, {"measurement": "MIC 100%", "setting": "Blastomyces dermatitidis; isolate BD3, macrodilution", "value": 1, "unit": "gg/m1"}, {"measurement": "MIC50", "setting": "C. parapsilosis; 24 h, isolate CP-1, 24 hrs", "value": 2, "unit": "µg/mL"}, {"measurement": "MIC50", "setting": "C. parapsilosis; 24 h, isolate CP-2, 24 hrs", "value": 2, "unit": "µg/mL"}, {"measurement": "MIC50", "setting": "C. parapsilosis; 24 h, isolate CP-3, 24 hrs", "value": 2, "unit": "µg/mL"}, {"measurement": "MIC50", "setting": "C. parapsilosis; 24 h, isolate CP-4, 24 hrs", "value": 2, "unit": "µg/mL"}, {"measurement": "MIC50", "setting": "C. parapsilosis; 24 h, isolate CP-5, 24 hrs", "value": 2, "unit": "µg/mL"}, {"measurement": "MIC50", "setting": "C. parapsilosis; 24 h, isolate CP-6, 24 hrs", "value": 2, "unit": "µg/mL"}, {"measurement": "MIC50", "setting": "C. parapsilosis; 24 h, isolate CP-7, 24 hrs", "value": 2, "unit": "µg/mL"}, {"measurement": "MIC50", "setting": "C. parapsilosis; 24 h, isolate QC", "value": 2, "unit": "µg/mL"}, {"measurement": "MIC", "setting": "C. parapsilosis; 24 h, read-out: MIC 100%, isolate CP-1, 24 hrs", "value": 2, "unit": "µg/mL"}, {"measurement": "MIC", "setting": "C. parapsilosis; 24 h, read-out: MIC 100%, isolate CP-2, 24 hrs", "value": 4, "unit": "µg/mL"}, {"measurement": "MIC", "setting": "C. parapsilosis; 24 h, read-out: MIC 100%, isolate CP-3, 24 hrs", "value": 4, "unit": "µg/mL"}, {"measurement": "MIC", "setting": "C. parapsilosis; 24 h, read-out: MIC 100%, isolate CP-4, 24 hrs", "value": 4, "unit": "µg/mL"}, {"measurement": "MIC", "setting": "C. parapsilosis; 24 h, read-out: MIC 100%, isolate CP-5, 24 hrs", "value": 2, "unit": "µg/mL"}, {"measurement": "MIC", "setting": "C. parapsilosis; 24 h, read-out: MIC 100%, isolate CP-6, 24 hrs", "value": 4, "unit": "µg/mL"}, {"measurement": "MIC", "setting": "C. parapsilosis; 24 h, read-out: MIC 100%, isolate CP-7, 24 hrs", "value": 2, "unit": "µg/mL"}, {"measurement": "MIC", "setting": "C. parapsilosis; 24 h, read-out: MIC 100%, isolate QC, 24 hrs", "value": 2, "unit": "µg/mL"}, {"measurement": "MIC50", "setting": "C. parapsilosis; 48 h, isolate CP-1, 48 hrs", "value": 4, "unit": "µg/mL"}, {"measurement": "MIC50", "setting": "C. parapsilosis; 48 h, isolate CP-2, 48 hrs", "value": 4, "unit": "µg/mL"}, {"measurement": "MIC50", "setting": "C. parapsilosis; 48 h, isolate CP-3, 48 hrs", "value": 4, "unit": "µg/mL"}, {"measurement": "MIC50", "setting": "C. parapsilosis; 48 h, isolate CP-4, 48 hrs", "value": 4, "unit": "µg/mL"}, {"measurement": "MIC50", "setting": "C. parapsilosis; 48 h, isolate CP-5, 48 hrs", "value": 4, "unit": "µg/mL"}, {"measurement": "MIC50", "setting": "C. parapsilosis; 48 h, isolate CP-6, 48 hrs", "value": 4, "unit": "µg/mL"}, {"measurement": "MIC50", "setting": "C. parapsilosis; 48 h, isolate CP-7, 48 hrs", "value": 2, "unit": "µg/mL"}, {"measurement": "MIC50", "setting": "C. parapsilosis; 48 h, isolate QC", "value": 2, "unit": "µg/mL"}, {"measurement": "MIC", "setting": "C. parapsilosis; 48 h, read-out: MIC 100%, isolate CP-1, 48 hrs", "value": 4, "unit": "µg/mL"}, {"measurement": "MIC", "setting": "C. parapsilosis; 48 h, read-out: MIC 100%, isolate CP-2, 48 hrs", "value": 4, "unit": "µg/mL"}, {"measurement": "MIC", "setting": "C. parapsilosis; 48 h, read-out: MIC 100%, isolate CP-3, 48 hrs", "value": 4, "unit": "µg/mL"}, {"measurement": "MIC", "setting": "C. parapsilosis; 48 h, read-out: MIC 100%, isolate CP-4, 48 hrs", "value": 4, "unit": "µg/mL"}, {"measurement": "MIC", "setting": "C. parapsilosis; 48 h, read-out: MIC 100%, isolate CP-5, 48 hrs", "value": 4, "unit": "µg/mL"}, {"measurement": "MIC", "setting": "C. parapsilosis; 48 h, read-out: MIC 100%, isolate CP-6, 48 hrs", "value": 4, "unit": "µg/mL"}, {"measurement": "MIC", "setting": "C. parapsilosis; 48 h, read-out: MIC 100%, isolate CP-7, 48 hrs", "value": 4, "unit": "µg/mL"}, {"measurement": "MIC", "setting": "C. parapsilosis; 48 h, read-out: MIC 100%, isolate QC, 48 hrs", "value": 4, "unit": "µg/mL"}, {"measurement": "MIC 50%", "setting": "[1]; isolate Cocci1, 48 hours", "value": 1, "unit": "gg/m1"}, {"measurement": "MIC 100%", "setting": "[1]; isolate Cocci1, 48 hours", "value": 1, "unit": "gg/m1"}, {"measurement": "MIC 50%", "setting": "[1]; isolate Cocci2, 48 hours", "value": 1, "unit": "gg/m1"}, {"measurement": "MIC 100%", "setting": "[1]; isolate Cocci2, 48 hours", "value": 1, "unit": "gg/m1"}, {"measurement": "MIC 50%", "setting": "[1]; isolate Cocci3, 48 hours", "value": 2, "unit": "gg/m1"}, {"measurement": "MIC 100%", "setting": "[1]; isolate Cocci3, 48 hours", "value": 2, "unit": "gg/m1"}, {"measurement": "MIC 50%", "setting": "Lomentospora prolificans", "value": 2, "unit": "gg/m1"}, {"measurement": "MIC 100%", "setting": "Lomentospora prolificans", "value": 2, "unit": "gg/m1"}, {"measurement": "MIC 50%", "setting": "Fusarium solani", "value": 4, "unit": "gg/m1"}, {"measurement": "MIC 100%", "setting": "Fusarium solani", "value": 4, "unit": "gg/m1"}, {"measurement": "MIC50", "setting": "C. guilliermondii; isolate Cgu-1, 24 hrs", "value": 2, "unit": "µg/mL"}, {"measurement": "MIC50", "setting": "C. guilliermondii; isolate Cgu-2, 24 hrs", "value": 2, "unit": "µg/mL"}, {"measurement": "MIC50", "setting": "C. guilliermondii; isolate Cgu-3, 24 hrs", "value": 2, "unit": "µg/mL"}, {"measurement": "MIC50", "setting": "C. guilliermondii; isolate Cgu-4, 24 hrs", "value": 2, "unit": "µg/mL"}, {"measurement": "MIC50", "setting": "C. guilliermondii; isolate Cgu-5, 24 hrs", "value": 4, "unit": "µg/mL"}, {"measurement": "MIC50", "setting": "C. guilliermondii; isolate Cgu-6, 24 hrs", "value": 4, "unit": "µg/mL"}, {"measurement": "MIC50", "setting": "C. guilliermondii; isolate Cgu-7, 24 hrs", "value": 2, "unit": "µg/mL"}, {"measurement": "MIC", "setting": "C. guilliermondii; read-out: MIC 100%, isolate Cgu-1, 24 hrs", "value": 2, "unit": "µg/mL"}, {"measurement": "MIC", "setting": "C. guilliermondii; read-out: MIC 100%, isolate Cgu-2, 24 hrs", "value": 2, "unit": "µg/mL"}, {"measurement": "MIC", "setting": "C. guilliermondii; read-out: MIC 100%, isolate Cgu-3, 24 hrs", "value": 2, "unit": "µg/mL"}, {"measurement": "MIC", "setting": "C. guilliermondii; read-out: MIC 100%, isolate Cgu-4, 24 hrs", "value": 2, "unit": "µg/mL"}, {"measurement": "MIC", "setting": "C. guilliermondii; read-out: MIC 100%, isolate Cgu-5, 24 hrs", "value": 4, "unit": "µg/mL"}, {"measurement": "MIC", "setting": "C. guilliermondii; read-out: MIC 100%, isolate Cgu-6, 24 hrs", "value": 4, "unit": "µg/mL"}]}
